This passage reports TGI results from PubChem BioAssay (NCI).

Among the test systems are BT-549 breast; CAKI-1 renal; CCRF-CEM leukemia; HOP-62 NSCLC; HOP-92 NSCLC; HT29 colon; IGROV1 ovarian; MALME-3M melanoma; MOLT-4 leukemia; NCI-H226 lung; NCI-H23 lung; NCI-H522 lung; OVCAR-3 ovarian; PC-3 prostate; RXF 393 renal; SK-MEL-2 melanoma; SNB-75 CNS; TK-10 renal; EKVX NSCLC; MDA-MB-435.
Holding throughout (test): DTP human tumour cell line panel, 48 h

The structures appear in SMILES notation.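 Grown in 96-well plates, cells were treated for 48 hours with each compound at five concentrations. Insufficient inhibition: endpoint recorded as highest concentration tested. TGI denotes the concentration required for complete inhibition of growth.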

As a reminder, the TGI is the concentration at which net growth stops. For `Nc1c(F)c(F)c2c(c1F)N(CCCCCl)c1ccccc1S2`, the TGI in the assay with BT-549 breast, in the assay with CAKI-1 renal, with CCRF-CEM leukemia, with HOP-62 NSCLC, in the assay with HOP-92 NSCLC and with HT29 colon was > 100 µM throughout. Besides, the concentration for total growth inhibition (TGI) with IGROV1 ovarian, in the assay on MALME-3M melanoma, with MOLT-4 leukemia, with NCI-H226 lung, in the assay with NCI-H23 lung and in the assay on NCI-H522 lung was > 100 µM each time. The concentration for total growth inhibition (TGI) in the assay with OVCAR-3 ovarian, in the assay on PC-3 prostate, in the assay with RXF 393 renal, in the assay on SK-MEL-2 melanoma, in the assay on SNB-75 CNS and with TK-10 renal was > 100 µM each time.

With `COc1ccc(/C(C)=C2\CCCN(Cc3ccccc3)C2)cc1`, the concentration for total growth inhibition (TGI) was 58.4 µM with CAKI-1 renal; 62.2 µM with CCRF-CEM leukemia; > 100 µM with EKVX NSCLC; 33.6 µM with HOP-62 NSCLC; 60.4 µM with HOP-92 NSCLC; 39.5 µM in the assay on HT29 colon. Further, the total growth inhibition concentration (TGI) in the assay on IGROV1 ovarian was 94.3 µM; with MALME-3M melanoma it was 34.8 µM; in the assay with MDA-MB-435, 51.6 µM; in the assay on MOLT-4 leukemia, 59.8 µM; in the assay with NCI-H226 lung, 63.6 µM; in the assay with NCI-H23 lung, 79.6 µM. In addition, the concentration for total growth inhibition (TGI) in the assay on NCI-H522 lung was 26.4 µM; with OVCAR-3 ovarian it was 37.4 µM; in the assay with PC-3 prostate it was 62.7 µM; in the assay with RXF 393 renal, 43.2 µM; in the assay with SK-MEL-2 melanoma, 43.4 µM; in the assay with SNB-75 CNS it was 73.1 µM. The total growth inhibition concentration (TGI) in the assay on TK-10 renal is > 100 µM.

In the case of `COc1nc(=O)[nH]c2c1C(c1ccc([N+](=O)[O-])cc1)c1c(OC)nc(=O)[nH]c1O2`, the concentration for total growth inhibition (TGI) in the assay with BT-549 breast, in the assay with CAKI-1 renal, in the assay with CCRF-CEM leukemia, with EKVX NSCLC, in the assay with HOP-62 NSCLC and in the assay on HT29 colon was > 100 µM in each case. Also, the concentration for total growth inhibition (TGI) in the assay on IGROV1 ovarian, in the assay with MDA-MB-435, in the assay on MOLT-4 leukemia, in the assay on NCI-H226 lung, in the assay on NCI-H23 lung and in the assay on NCI-H522 lung was > 100 µM in each case. Further, the TGI with OVCAR-3 ovarian, in the assay with PC-3 prostate, with RXF 393 renal, in the assay with SK-MEL-2 melanoma and in the assay on TK-10 renal was > 100 µM throughout.

In the case of `CNC(=O)O/N=C1\N(C)CN(c2ccccc2)C12CCN(CCCC(=O)c1ccc(F)cc1)CC2`, the TGI in the assay with CAKI-1 renal, in the assay on CCRF-CEM leukemia, in the assay with EKVX NSCLC, with HOP-62 NSCLC, in the assay with HOP-92 NSCLC and with HT29 colon was > 100 µM in each case. The TGI in the assay on IGROV1 ovarian is > 100 µM; in the assay on MALME-3M melanoma, 90.8 µM; in the assay with MDA-MB-435 it was > 100 µM; in the assay with MOLT-4 leukemia it was > 100 µM; in the assay on NCI-H226 lung, > 100 µM; in the assay with NCI-H23 lung it was > 100 µM. In addition, the TGI is > 100 µM in the assay with NCI-H522 lung; > 100 µM with OVCAR-3 ovarian; > 100 µM in the assay with PC-3 prostate; > 100 µM in the assay with RXF 393 renal; > 100 µM with SK-MEL-2 melanoma; 24.3 µM in the assay with SNB-75 CNS. Besides, the total growth inhibition concentration (TGI) with TK-10 renal was > 100 µM.

Turning to `CCCCC/C=C\C=C\CCCCCCCCC(=O)OC`, the total growth inhibition concentration (TGI) in the assay on BT-549 breast, with CAKI-1 renal, in the assay on EKVX NSCLC, in the assay on HOP-62 NSCLC, in the assay on HOP-92 NSCLC and in the assay on HT29 colon was > 100 µM throughout. The TGI with IGROV1 ovarian, in the assay with MALME-3M melanoma, with MOLT-4 leukemia, in the assay with NCI-H226 lung, with NCI-H23 lung and in the assay with OVCAR-3 ovarian was > 100 µM throughout. Besides, the TGI in the assay with PC-3 prostate, with RXF 393 renal, in the assay on SK-MEL-2 melanoma, in the assay with SNB-75 CNS and with TK-10 renal was > 100 µM each time.

Take `COc1ccccc1/C=C1\CCC(Cc2ccccc2)(CN(C)C)C1=O` (stereo not given): the TGI is 40.5 µM with BT-549 breast; 51.8 µM in the assay with CAKI-1 renal; 24.4 µM with CCRF-CEM leukemia; 34.7 µM in the assay on EKVX NSCLC; > 69 µM in the assay with HOP-62 NSCLC; 66.2 µM with HOP-92 NSCLC. Moreover, the TGI is 5.55 µM with HT29 colon; > 41.2 µM in the assay with IGROV1 ovarian; > 100 µM with MALME-3M melanoma; 38.9 µM with MOLT-4 leukemia; 80.4 µM in the assay with NCI-H226 lung; > 100 µM in the assay with NCI-H23 lung. Also, the total growth inhibition concentration (TGI) with NCI-H522 lung is 2.1 µM; in the assay with OVCAR-3 ovarian it was 15.3 µM; in the assay with RXF 393 renal, 51 µM; with SK-MEL-2 melanoma, 34.8 µM; in the assay with SNB-75 CNS, > 88.9 µM; with TK-10 renal it was > 77.7 µM.

Take `CC(CC(=O)N1C2CC3CCC2(CS1(=O)=O)C3(C)C)[Si](C)(C)C` (stereo not given): the TGI with BT-549 breast, in the assay with CAKI-1 renal, with CCRF-CEM leukemia, in the assay with EKVX NSCLC, in the assay with HOP-62 NSCLC and in the assay with HT29 colon was > 100 µM each time. Moreover, the TGI in the assay on IGROV1 ovarian, in the assay on MALME-3M melanoma, in the assay on MDA-MB-435, with MOLT-4 leukemia, in the assay with NCI-H226 lung and with NCI-H23 lung was > 100 µM each time. Moreover, the TGI in the assay with NCI-H522 lung, in the assay on OVCAR-3 ovarian, in the assay on PC-3 prostate, in the assay with RXF 393 renal, with SNB-75 CNS and in the assay with TK-10 renal was > 100 µM in each case.

`C1=NN2C(c3ccccc3)=NOC2C2C(c3ccccc3)=NOC12` (stereo not given): the TGI in the assay on BT-549 breast, in the assay with CAKI-1 renal, in the assay with EKVX NSCLC, in the assay on HOP-62 NSCLC, in the assay on IGROV1 ovarian and in the assay on MALME-3M melanoma was > 100 µM each time. Further, the TGI with NCI-H226 lung, in the assay with NCI-H23 lung, in the assay on NCI-H522 lung, in the assay on OVCAR-3 ovarian, in the assay with PC-3 prostate and with RXF 393 renal was > 100 µM in each case. The total growth inhibition concentration (TGI) with SNB-75 CNS and with TK-10 renal was > 100 µM throughout.
